The test system of one test is amyloid plaques. Put plainly: Number of amyloid plaques (thioflavin T) in 5×FAD mouse brain. It is filed as in vivo. The conditions noted are these: 1 mg/kg twice a week for 3 months; for Amyloid plaque number in hippocampus: compared to controls. The method, then:
5×FAD mice received chronic treatments with drugs or vehicle according to 2 different protocols. In each experiment, drugs or vehicle solution were administered i.p. twice a week (1 mg/kg). In “Protocol 1”, mice (n=6-7 mice per group) were treated with compounds for two months, from 2 to 4 months of age. In “Protocol 2”, mice (n=7) were treated with compounds for three months, from 1 month to 4 months of age. At the end of each protocol, mice were anesthetized with a mixture of 100 mg/kg ketamine and 10 mg/kg xylazine in saline solution and perfused transcardially with PBS. Brains were quickly isolated on ice, the olfactory bulbs and cerebellum removed and the two hemispheres divided. One hemisphere was frozen on dry ice and stored at −80° C. for biochemical analysis, while the other was post-fixed in 4% PFA for immunohistochemistry (IHC).
Thirty-micrometer-thick sections were cut using a vibratome (Microm HM 650V, Thermo Scientific, Saint Herblain, France) and stored in cryoprotectant medium at −20° C. For the labeling of amyloid plaques, free-floating tissue sections of frontal cortex, hippocampus and entorhinal cortex (coordinates from the bregma: frontal cortex=1.98 mm, hippocampus=−1.94 mm, entorhinal cortex=−3.08 mm) were extensively washed in PBS and then incubated in blocking solution (PBS; 3% BSA; 0.1% Triton X-100) for 1 h. Sections were stained with Hoechst dye (1:1000, Life Technologies, Saint Aubin, France) for 15 minutes to detect cell nuclei and then with freshly prepared thioflavin T solution (#T3516-5G, Sigma-Aldrich) (final concentration: 0.01 mg/ml in blocking buffer) for 15 minutes. After washing in 70% ethanol for 5 minutes, samples were mounted on poly-lysine slides with coverslips. For GFAP (glial fibrillary acidic protein) staining, free-floating brain sections were blocked as before and incubated with polyclonal rabbit anti-GFAP (1:1000, Z0334, Dako, Les Ullis, France) at 4° C. overnight. After thioflavin T staining and washing with 70% ethanol, the secondary Alexafluor 594 goat anti-rabbit antibody (1:1000, A11012, Life Technologies) was added for 2 h. PBS washes and mounting were performed as described before.
Images were acquired with an Axiolmager Z1 microscope (Carl Zeiss S.A.S., Marly le Roi, France). Analysis of thioflavin T staining was performed blindly and data are presented as the mean number of particles per mm^2 in two to three tissue sections from the same brain area/animal (Image J software). GFAP expression was quantified using Image J software and results are expressed as area fractions.
28 female 5×FAD mice (C57BL/6J genetic background) were used in this study. Mice received vehicle or compounds (1 mg/kg) i.p., twice a week for three months, from 1 to 4 months of age.
Anti-amyloid effect. Frontal cortex, hippocampus and entorhinal cortex were analyzed as representative areas of 5×FAD mouse brain (frontal, median and caudal sections) and of human brain regions that are affected early by Alzheimer's disease and are highly enriched in amyloid deposits.

The test system of test [1] is rat primary cortical neurons after glutamate injury. The test can be described thus: Survival and neurite network of primary cortical neurons after glutamate injury. The conditions noted are these: glutamate 20 μM 20 min; for concentrations significantly protecting cortical neurons from death: compound 1 h before and 48 h after; for concentration of maximal effect on neurite network: cortical neurons. The format is cell-based. The method, then:
The present study assesses the neuroprotective effect of MR36014 and MR33583 (at 4 concentrations) in rat primary cortical neurons after glutamate injury. The test compounds were pre-incubated for 1 hour before glutamate application (20 μM for 20 min). The neuroprotective effect (survival and neurite network) of test compounds were investigated.
Rat cortical neurons were cultured as described by Callizot et al. (2013) J. Neurosci. Res. 91:706-716. Pregnant female rat (Wistar) of 15 days of gestation were killed using a deep anesthesia with CO2 chamber and a cervical dislocation. Briefly, fetuses were collected and immediately placed in ice-cold L15 Leibovitz medium with a 2% penicillin (10,000 U/mL) and streptomycin (10 mg/mL) solution (PS) and 1% bovine serum albumin (BSA). Cortex were treated for 20 min at 37° C. with a trypsin-EDTA solution at a final concentration of 0.05% trypsin and 0.02% EDTA. The dissociation was stopped by addition of Dulbecco's modified Eagle's medium (DMEM) with 4.5 g/l of glucose, containing DNAse I grade II (final concentration 0.5 mg/ml) and 10% fetal calf serum (FCS). Cells were mechanically dissociated by three forced passages through the tip of a 10-ml pipette. Cells were then centrifuged at 515×g for 10 min at 4° C. The supernatant was discarded, and the pellet was resuspended in a defined culture medium consisting of Neurobasal medium with a 2% solution of B27 supplement, 2 mmol/I L-glutamine, 2% PS solution, and 10 ng/ml brain-derived neurotrophic factor (BDNF). Viable cells were counted in a Neubauer cytometer, using the trypan blue exclusion test.
The cells were seeded at a density of 25,000 per well in 96-well plates precoated with poly-L-lysine and were cultured at 37° C. in an air (95%)-CO2 (5%) incubator.
Pre-incubation: On day 13 of culture, the compounds were dissolved in the culture medium and pre-incubated with primary cortical neurons for 1 hour, before glutamate exposure.
Injury: 1 hour after test compound incubation, glutamate was added to a final concentration of 20 μM diluted in control medium still in presence of the test compounds for 20 min. After 20 min, glutamate was washed out and fresh culture medium with the test compounds were added for additional 48 hours.
Test compounds were tested in 96-well plate (n=6 culture wells per condition). The following conditions were assessed: […]
The following read-outs will be investigated: • The total neuron survival (MAP-2 positive, number), (data will be expressed into mean number of neurons of 30 pictures per well). • The total neurite network (MAP-2 in μm), (data will be expressed into mean of neurons of 30 pictures per well).

Data on 4 compounds can be found in patent publication US20220031680A1, “Donecopride As Neuroprotective Agent In the Treatment of Neurodegenerative Diseases” (priority 2018, published 2022).

Several values for one entry are separate records, joined by “and”; a condition that tells them apart may be missing. Equal entries are not always repeated.

`COc1cc(N)c(F)cc1C(=O)CCC1CCN(CC2CCCCC2)CC1` [Flucopride]: in the test on amyloid plaques, the “Amyloid plaque number in hippocampus” value is “not significantly different”. For the same compound, the “reduction of the number of amyloid plaques in entorhinal cortex” value in the test on amyloid plaques (compared to vehicle) worked out at 28±6%.

For the compound `COc1cc(N)c(Cl)cc1C(=O)CCC1CCN(CC2CCCCC2)CC1` [Donecopride], the “Amyloid plaque number in hippocampus” value with amyloid plaques is reported as “not significantly different”. For the same compound, in the test with amyloid plaques (compared to vehicle), the “reduction of the number of amyloid plaques in entorhinal cortex” value was determined as 24±4% and the “reduction of the number of amyloid plaques in frontal cortex” value came to 16±3%.

Take `COc1cc(N)c(F)cc1C(=O)CCC1CCN(CC2CCCC2)CC1` [MR33583]: in test [1], the “concentrations significantly protecting cortical neurons from death” value was 50 nM and 100 nM; the “concentration of maximal effect on neurite network” value came to 50 nM.

Turning to `COc1cc(N)c(F)cc1C(=O)CCC1CCN(CC2CCCCCC2)CC1` [MR36014], in test [1], the “concentrations significantly protecting cortical neurons from death” value is listed as 1 nM and the “concentration of maximal effect on neurite network” value is given as 1 nM.
